Reference: patent US5888781A, “Method for increasing the hydrolytic activity of starch hyrdolases” (University of Maryland Baltimore County, priority 1997, dated 1999)

Experiments:
[1] = target: T1, GA from A. awamori (Aspergillus awamori, UniProt P69327); experiment: GA activity assay: maltose hydrolysis in the presence of cosolvents; type: biochemical; conditions: maltose hydrolysis by GA at 45° C.; for Corresponding cosolvent concentration at maximum percent increase in kcat: 0.05M sodium acetate buffer pH 4.5, 20 mM maltose; for kcat: at cosolvent concentration of maximum increase
T1 construct: made in house; host or cells: Saccharomyces cerevisiae
T1 sequence (P69327 25-640): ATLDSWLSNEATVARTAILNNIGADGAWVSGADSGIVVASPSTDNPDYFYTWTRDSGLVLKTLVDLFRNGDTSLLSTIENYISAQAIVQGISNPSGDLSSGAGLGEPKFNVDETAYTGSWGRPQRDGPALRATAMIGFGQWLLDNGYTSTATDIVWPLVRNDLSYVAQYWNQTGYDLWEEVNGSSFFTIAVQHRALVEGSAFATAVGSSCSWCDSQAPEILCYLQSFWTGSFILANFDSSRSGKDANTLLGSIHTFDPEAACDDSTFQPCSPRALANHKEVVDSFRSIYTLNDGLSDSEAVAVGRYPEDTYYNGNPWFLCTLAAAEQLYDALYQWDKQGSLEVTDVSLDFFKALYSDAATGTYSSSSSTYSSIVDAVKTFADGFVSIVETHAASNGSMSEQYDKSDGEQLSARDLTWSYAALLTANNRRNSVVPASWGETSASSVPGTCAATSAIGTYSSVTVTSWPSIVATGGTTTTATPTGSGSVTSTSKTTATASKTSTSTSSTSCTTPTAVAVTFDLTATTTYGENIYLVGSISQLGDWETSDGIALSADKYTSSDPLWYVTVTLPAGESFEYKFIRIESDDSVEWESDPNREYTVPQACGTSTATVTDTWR
Procedure: GA was produced in Saccharomyces cerevisiae and obtained, as described by Natarajan et al, Biochem., 35:3050-3058 (1996).
Kinetic assays were performed either at 45° C. or at 60° C., in 0.05M sodium acetate buffer (pH 4.5), using a substrate, i.e., maltose, concentration of 20 mM. The substrate concentration was sufficiently above the Km value so that the measured rate was directly proportional to kcat. The enzyme concentrations used in the reaction mixtures were 35 μg/ml and 3.5 μg/ml for the 45° C. and 60° C. experiments, respectively.
(§1) The cosolvent solutions were prepared from a concentrated cosolvent mixture by dilution to the final concentrations ranging from 0-90% (w/v), into the appropriate reaction buffer solution. The buffer solutions were titrated for pH prior to addition of cosolvent. All of the solutions were equilibrated at 45° C. (or 60° C.) in a water bath, and the reaction was started by the addition of a 25 μl aliquot of enzyme. Reaction aliquots were removed at various times, and the reaction was stopped by the addition of 2.5M Trizma base (pH 7.0). All of the reactions were performed in duplicate. The rates were determined by measuring the concentration of the released glucose by the glucose oxidase method, using the Glucose Oxidase Kit (Sigma), as modified for microtiter plate assays, at OD450 nm (Fox et al, Anal. Biochem., 195:93-96 (1991); and Palcic et al, Carbohydr. Res., 250:87-92 (1993)), and using an EL 340 biokinetics reader (BIOTEK Instruments; Winooski, Vt.).
Glucose standards at each of the various cosolvent concentrations were run parallel to each reaction so that any effect of the cosolvents on the glucose assay could be subtracted out.

[2] = target: T1, GA from A. awamori; experiment: Effect of cosolvent solution viscosity on kcat of GA (maltose hydrolysis); type: biochemical; conditions: maltose hydrolysis at 45° C.; for Effect of solution viscosity on kcat (in words): PEG200 viscosities up to 14 cp, PEG8000 up to 18 cp
Procedure: Kinetic assays were performed either at 45° C. or at 60° C., in 0.05M sodium acetate buffer (pH 4.5), using a substrate, i.e., maltose, concentration of 20 mM. The substrate concentration was sufficiently above the Km value so that the measured rate was directly proportional to kcat.
as §1
All buffers of various cosolvent concentrations were filtered before use. Viscosity and density measurements were performed using an Ostwald Capillary Viscometer at 45° C. The densities of the various buffer solutions were obtained by replicate weighing of one milliliter volumes of buffer.
As discussed above, if product release is the rate-limiting step in the GA mechanism, there should be a dependence of the kcat value on solution viscosity. If a conformational change associated with the product release is limiting the reaction rate, the relationship between kcat and viscosity, μ, should be μ^-δ (Demchenko et al, supra). This relationship is based on the Kramers' theory (Kramers, supra) which postulates that diffusional motion in a random field controls the rate at which the enzyme complex will pass over the activation energy barrier. […] This relationship is based on the theory that the dissociating product must have a certain minimal kinetic energy to escape some characteristic volume in the enzyme active site. Once the product has exited from the characteristic volume, the product has a very low probability of reassociating. If the former relationship is valid, plots of ln(kcat) vs ln(μ) for the various cosolvents should be linear with a slope of -δ, whereas if the latter is true plots of ln(kcat) vs (μ)^2 should be linear with a slope corresponding to -γ.

Row | SMILES | Maximum percent increase in kcat over control value without cosolvent [1] | Corresponding cosolvent concentration at maximum percent increase in kcat [1] | Effect of cosolvent on kcat (in words) ([1]; FIGS. 1A-1G) | kcat [1] | Solution viscosity at which GA activity starts to decrease significantly [2] | Effect of solution viscosity on kcat (in words) [2] | Cosolvent concentration of peak (largest) increase in kcat [1] | Slope of plot of ln(kcat) vs (μ)^2 ([2]; FIGS. 4A-4G)
1 | OCC(O)CO [Glycerol, glycerol, reference compound] | 11% | 1.0% | only a minor increase in kcat | 10.4 s⁻¹ | around 3.5 cp | substantially decreased kcat | – | –
2 | OCCO [EG, ethylene glycol] | 32% | 50% | – | 12.4 s⁻¹ | around 3.5 cp | substantially decreased kcat | around 50 % (w/v) | -0.06
